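Interpolation was linear, between the two tested concentrations surrounding the appropriate level; five concentrations were tested over 48 hours in 96-well plates. The concentration for 50% growth inhibition is given as GI50. TGI marks complete inhibition of growth.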
Experiments:
Assay in all cases: NCI tumour cell line growth inhibition, 48 h
786-0 renal = system: 786-0 renal
A498 renal = system: A498 renal
A549 NSCLC = system: A549 NSCLC
ACHN renal = system: ACHN renal
BT-549 breast = system: BT-549 breast
CAKI-1 renal = system: CAKI-1 renal
CCRF-CEM leukemia = system: CCRF-CEM leukemia
COLO 205 colon = system: COLO 205 colon
DU-145 prostate = system: DU-145 prostate
EKVX NSCLC = system: EKVX NSCLC
HCC-2998 colon = system: HCC-2998 colon
HCT-116 colon = system: HCT-116 colon
HCT-15 colon = system: HCT-15 colon
HL-60(TB) leukemia = system: HL-60(TB) leukemia
HOP-62 NSCLC = system: HOP-62 NSCLC
HOP-92 NSCLC = system: HOP-92 NSCLC
HS 578T breast = system: HS 578T breast
HT29 colon = system: HT29 colon
IGROV1 ovarian = system: IGROV1 ovarian
K-562 leukemia = system: K-562 leukemia
KM12 colon = system: KM12 colon
LOX IMVI melanoma = system: LOX IMVI melanoma
M14 melanoma = system: M14 melanoma
MALME-3M melanoma = system: MALME-3M melanoma
MCF7 breast = system: MCF7 breast
MDA-MB-231 breast = system: MDA-MB-231 breast
MDA-MB-435 = system: MDA-MB-435
MOLT-4 leukemia = system: MOLT-4 leukemia
NCI-H226 lung = system: NCI-H226 lung
NCI-H23 lung = system: NCI-H23 lung
NCI-H460 lung = system: NCI-H460 lung
NCI-H522 lung = system: NCI-H522 lung
NCI/ADR-RES ovarian = system: NCI/ADR-RES ovarian
OVCAR-3 ovarian = system: OVCAR-3 ovarian
OVCAR-4 ovarian = system: OVCAR-4 ovarian
OVCAR-5 ovarian = system: OVCAR-5 ovarian
OVCAR-8 ovarian = system: OVCAR-8 ovarian
PC-3 prostate = system: PC-3 prostate
RPMI-8226 leukemia = system: RPMI-8226 leukemia
RXF 393 renal = system: RXF 393 renal
SF-268 CNS = system: SF-268 CNS
SF-295 CNS = system: SF-295 CNS
SF-539 CNS = system: SF-539 CNS
SK-MEL-2 melanoma = system: SK-MEL-2 melanoma
SK-MEL-28 melanoma = system: SK-MEL-28 melanoma
SK-MEL-5 melanoma = system: SK-MEL-5 melanoma
SK-OV-3 ovarian = system: SK-OV-3 ovarian
SN12C renal = system: SN12C renal
SNB-19 CNS = system: SNB-19 CNS
SNB-75 CNS = system: SNB-75 CNS
SR leukemia = system: SR leukemia
SW-620 colon = system: SW-620 colon
T-47D breast = system: T-47D breast
TK-10 renal = system: TK-10 renal
U251 CNS = system: U251 CNS
UACC-257 melanoma = system: UACC-257 melanoma
UACC-62 melanoma = system: UACC-62 melanoma
UO-31 renal = system: UO-31 renal

In the case of O=C(CCl)Nc1ccc2c(Nc3cc(O)ccc3Cl)ncnc2c1, the GI50 (786-0 renal) is reported as 1.24 µM, the TGI (786-0 renal) is reported as 4.56 µM and the GI50 (A498 renal) is reported as 5.51 µM. For the same compound, the TGI (A498 renal) was 11.1 µM, the GI50 (A549 NSCLC) was 4.08 µM and the TGI (A549 NSCLC) was 8.26 µM. For the same compound, the GI50 (ACHN renal) was 2.87 µM, the TGI (ACHN renal) was 6.52 µM and the GI50 (BT-549 breast) was 2.02 µM. The TGI (BT-549 breast) was 5.81 µM, the GI50 (CAKI-1 renal) was 3.36 µM and the TGI (CAKI-1 renal) was 7.45 µM. It also gave a GI50 (CCRF-CEM leukemia) of 0.892 µM, a TGI (CCRF-CEM leukemia) of 3.02 µM and a GI50 (COLO 205 colon) of 4.03 µM. The TGI (COLO 205 colon) was 8.06 µM, the GI50 (DU-145 prostate) was 2.39 µM and the TGI (DU-145 prostate) was 5.36 µM. The GI50 (EKVX NSCLC) was 3.03 µM, the TGI (EKVX NSCLC) was 6.87 µM and the GI50 (HCC-2998 colon) was 4.9 µM. For the same compound, the TGI (HCC-2998 colon) was 9.81 µM, the GI50 (HCT-116 colon) was 0.93 µM and the TGI (HCT-116 colon) was 3.99 µM. For the same compound, the GI50 (HCT-15 colon) was 0.773 µM, the TGI (HCT-15 colon) was 3.32 µM and the GI50 (HL-60(TB) leukemia) was 1.15 µM. It also gave a TGI (HL-60(TB) leukemia) of 4.88 µM, a GI50 (HOP-62 NSCLC) of 3.27 µM and a TGI (HOP-62 NSCLC) of 7.17 µM. The GI50 (HOP-92 NSCLC) was 4.86 µM, the TGI (HOP-92 NSCLC) was 9.38 µM and the GI50 (HS 578T breast) was 3.27 µM. For the same compound, the TGI (HS 578T breast) was 15.2 µM, the GI50 (HT29 colon) was 1.93 µM and the TGI (HT29 colon) was 5.78 µM. The GI50 (IGROV1 ovarian) was 2.12 µM, the TGI (IGROV1 ovarian) was 6.32 µM and the GI50 (K-562 leukemia) was 0.929 µM. For the same compound, the TGI (K-562 leukemia) was 7.23 µM, the GI50 (KM12 colon) was 3.23 µM and the TGI (KM12 colon) was 7.11 µM. For the same compound, the GI50 (LOX IMVI melanoma) was 0.818 µM, the TGI (LOX IMVI melanoma) was 3.64 µM and the GI50 (M14 melanoma) was 3.3 µM. The TGI (M14 melanoma) was 7.26 µM, the GI50 (MALME-3M melanoma) was 3.9 µM and the TGI (MALME-3M melanoma) was 8.1 µM. The GI50 (MCF7 breast) was 1.07 µM, the TGI (MCF7 breast) was 5 µM and the GI50 (MDA-MB-231 breast) was 2.75 µM. For the same compound, the TGI (MDA-MB-231 breast) was 6.25 µM, the GI50 (MDA-MB-435) was 2.21 µM and the TGI (MDA-MB-435) was 5.75 µM. It also gave a GI50 (MOLT-4 leukemia) of 0.846 µM, a TGI (MOLT-4 leukemia) of 4.03 µM and a GI50 (NCI-H226 lung) of 5.86 µM. It also gave a TGI (NCI-H226 lung) of 12.3 µM, a GI50 (NCI-H23 lung) of 2.73 µM and a TGI (NCI-H23 lung) of 7.1 µM. It also gave a GI50 (NCI-H460 lung) of 2.33 µM, a TGI (NCI-H460 lung) of 6.4 µM and a GI50 (NCI-H522 lung) of 0.664 µM. It also gave a TGI (NCI-H522 lung) of 2.12 µM, a GI50 (NCI/ADR-RES ovarian) of 3.55 µM and a TGI (NCI/ADR-RES ovarian) of 9.31 µM. The GI50 (OVCAR-3 ovarian) was 1.71 µM, the TGI (OVCAR-3 ovarian) was 5.2 µM and the GI50 (OVCAR-4 ovarian) was 3.09 µM. For the same compound, the TGI (OVCAR-4 ovarian) was 7.44 µM, the GI50 (OVCAR-5 ovarian) was 3.4 µM and the TGI (OVCAR-5 ovarian) was 7.03 µM. It also gave a GI50 (OVCAR-8 ovarian) of 3.71 µM, a TGI (OVCAR-8 ovarian) of 10.1 µM and a GI50 (PC-3 prostate) of 3.02 µM. For the same compound, the TGI (PC-3 prostate) was 6.79 µM, the GI50 (RPMI-8226 leukemia) was 2.94 µM and the TGI (RPMI-8226 leukemia) was 7.66 µM. For the same compound, the GI50 (RXF 393 renal) was 3.37 µM, the TGI (RXF 393 renal) was 7.13 µM and the GI50 (SF-268 CNS) was 2.65 µM. It also gave a TGI (SF-268 CNS) of 6.63 µM, a GI50 (SF-295 CNS) of 2.58 µM and a TGI (SF-295 CNS) of 5.96 µM. The GI50 (SF-539 CNS) was 3.38 µM, the TGI (SF-539 CNS) was 6.84 µM and the GI50 (SK-MEL-2 melanoma) was 3.65 µM. The TGI (SK-MEL-2 melanoma) was 8.19 µM, the GI50 (SK-MEL-28 melanoma) was 3.66 µM and the TGI (SK-MEL-28 melanoma) was 7.97 µM. The GI50 (SK-MEL-5 melanoma) was 3.22 µM, the TGI (SK-MEL-5 melanoma) was 6.76 µM and the GI50 (SK-OV-3 ovarian) was 4.24 µM. The TGI (SK-OV-3 ovarian) was 7.94 µM, the GI50 (SN12C renal) was 1.21 µM and the TGI (SN12C renal) was 4.06 µM. For the same compound, the GI50 (SNB-19 CNS) was 2.14 µM, the TGI (SNB-19 CNS) was 5.22 µM and the GI50 (SNB-75 CNS) was 3.28 µM. The TGI (SNB-75 CNS) was 6.56 µM, the GI50 (SR leukemia) was 0.758 µM and the TGI (SR leukemia) was 3.72 µM. For the same compound, the GI50 (SW-620 colon) was 1.14 µM, the TGI (SW-620 colon) was 3.79 µM and the GI50 (T-47D breast) was 3.51 µM. For the same compound, the TGI (T-47D breast) was 7.72 µM, the GI50 (TK-10 renal) was 3.87 µM and the TGI (TK-10 renal) was 8.23 µM. The GI50 (U251 CNS) was 0.828 µM, the TGI (U251 CNS) was 2.97 µM and the GI50 (UACC-257 melanoma) was 4.02 µM. The TGI (UACC-257 melanoma) was 8.44 µM, the GI50 (UACC-62 melanoma) was 2.38 µM and the TGI (UACC-62 melanoma) was 5.98 µM. It also gave a GI50 (UO-31 renal) of 2.69 µM and a TGI (UO-31 renal) of 6 µM.

Reference: PubChem BioAssay (NCI)
